Measurements taken from patent US20230083015A1, “SMALL MOLECULE DEGRADERS OF STAT3” (THE REGENTS OF THE UNIVERSITY OF MICHIGAN, priority 2019, published 2023).

How the values were obtained:
STAT1 = target: T1, STAT1 (Homo sapiens, UniProt P42224); assay: Estimated DC50 for STAT1 degradation in MOLM-16 cells (immunoblotting); format: cell-based; settings: MOLM-16, 4 h; read-out: Estimated DC50 STAT1
T1 construct: In vitro cultured cells or xenograft tumors were lysed; endogenous in cells; host or cells: MOLM-16
T1 sequence (P42224 1-750): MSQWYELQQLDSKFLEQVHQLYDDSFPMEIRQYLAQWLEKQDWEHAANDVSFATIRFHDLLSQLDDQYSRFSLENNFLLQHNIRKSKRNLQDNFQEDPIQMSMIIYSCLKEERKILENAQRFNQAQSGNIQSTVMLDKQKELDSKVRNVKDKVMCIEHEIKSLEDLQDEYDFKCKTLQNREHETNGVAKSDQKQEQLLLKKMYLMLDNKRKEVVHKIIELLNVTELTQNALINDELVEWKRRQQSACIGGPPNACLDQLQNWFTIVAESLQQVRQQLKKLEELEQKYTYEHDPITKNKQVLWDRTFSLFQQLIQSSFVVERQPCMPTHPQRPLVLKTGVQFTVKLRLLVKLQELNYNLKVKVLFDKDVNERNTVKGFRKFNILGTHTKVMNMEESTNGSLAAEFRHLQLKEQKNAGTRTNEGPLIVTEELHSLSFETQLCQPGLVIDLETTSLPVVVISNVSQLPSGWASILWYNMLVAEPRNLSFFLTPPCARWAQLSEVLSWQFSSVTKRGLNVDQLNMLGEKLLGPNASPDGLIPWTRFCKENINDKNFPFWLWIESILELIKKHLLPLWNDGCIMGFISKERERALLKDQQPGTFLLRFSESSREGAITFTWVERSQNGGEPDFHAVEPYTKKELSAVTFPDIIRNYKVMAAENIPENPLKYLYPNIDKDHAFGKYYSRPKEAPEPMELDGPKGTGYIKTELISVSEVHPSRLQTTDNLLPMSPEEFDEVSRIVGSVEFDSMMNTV
Description: (§1) FIG. 62 is a series of four images showing the fluorescent immunoblotting analysis of STAT1 and STAT3 protein in Molm-16 cells after treatment for 4 h with Cpd. Nos. 331, 296, 361, 362, 363, 364, 365, 366, and 367 at the concentrations indicated.
(§2) In vitro cultured cells or xenograft tumors were lysed 1× Cell Lysis Buffer (Cell Signaling Technology, #9803), resolved by SDS-PAGE NuPAGE gel (Thermo Fisher Scientific), and transferred to a PVDF membrane (Bio Rad). For chemiluminescence immunoblotting, membranes were blocked for 1 h using 5% Blotting-Grade Blocker (#1706404, Bio Rad) in 1× Tris-buffered saline with Tween 20 (TBST, Pierce). Antibodies used were: rabbit mAbs for STAT3 (Cell Signaling Technology, #4368, #12640) and p-STAT3 (Y705) (Cell Signaling Technology, #9245, #52075). HRP conjugated goat anti-rabbit IgG (H+L) (#A27036) secondary antibodies was from Thermo Fisher Scientific. GAPDH (Santa Cruz Technology, sc-47724HRP) and actin (Santa Cruz Technology, sc-8432HRP, sc-47778HRP) were loading controls. For fluorescent immunoblotting, membranes were blocked using Odyssey TBS Blocker Buffer (LI-COR). IRDye 680RD and 800CW Dye-labeled secondary antibodies (LI-COR) were used. The washed membranes were scanned using Odyssey CLx imager (LI-COR). The intensity of Western blot signaling was quantitated using the Odyssey software.
(§3) The estimated DC50 in MOLM-16 cells of representative Compounds of the Disclosure against STAT3 and STAT1 is provide in Table 5.

STAT3 = STAT3 (Homo sapiens, UniProt P40763); assay: Estimated DC50 for STAT3 degradation in MOLM-16 cells (immunoblotting); format: cell-based; set-up: In vitro cultured cells or xenograft tumors were lysed; endogenous in cells; host or cells: MOLM-16; settings: MOLM-16, 4 h; read-out: Estimated DC50 STAT3
Description: as §1, §2, §3

Sequence of STAT3 (P40763 whole entry): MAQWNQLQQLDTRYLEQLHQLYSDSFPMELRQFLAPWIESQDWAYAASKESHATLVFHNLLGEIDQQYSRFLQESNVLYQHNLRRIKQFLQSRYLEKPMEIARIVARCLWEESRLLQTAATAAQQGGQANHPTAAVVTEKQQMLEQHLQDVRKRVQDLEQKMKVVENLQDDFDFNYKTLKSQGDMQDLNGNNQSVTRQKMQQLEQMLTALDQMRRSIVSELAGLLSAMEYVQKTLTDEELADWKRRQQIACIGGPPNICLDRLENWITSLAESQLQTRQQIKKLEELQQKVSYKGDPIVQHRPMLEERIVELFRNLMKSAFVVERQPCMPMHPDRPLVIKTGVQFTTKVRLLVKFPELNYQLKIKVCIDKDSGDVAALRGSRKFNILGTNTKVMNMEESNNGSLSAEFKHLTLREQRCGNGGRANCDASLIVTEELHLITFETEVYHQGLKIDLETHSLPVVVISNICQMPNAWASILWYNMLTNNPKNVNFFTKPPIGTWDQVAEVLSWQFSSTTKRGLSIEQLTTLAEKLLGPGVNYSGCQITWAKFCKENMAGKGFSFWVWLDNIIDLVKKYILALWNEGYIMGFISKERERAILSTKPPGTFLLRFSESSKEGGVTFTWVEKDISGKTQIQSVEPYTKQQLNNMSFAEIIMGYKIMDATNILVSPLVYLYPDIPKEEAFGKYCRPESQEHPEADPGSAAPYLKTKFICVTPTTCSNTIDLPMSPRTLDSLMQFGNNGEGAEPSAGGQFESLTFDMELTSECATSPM

Molecule `CC(=O)N1CC[C@H]2CC[C@@H](C(=O)N[C@@H](CCC(N)=O)C(=O)N[C@@H](Cc3ccc(C(C)(C)C)cc3)C(=O)N3CCC(CCC#Cc4cccc5c4CN(C4CCC(=O)NC4=O)C5=O)CC3)N2C(=O)[C@@H](NC(=O)c2cc3cc(C(F)(F)P(=O)(O)O)ccc3s2)C1` (stereo partly drawn) [Cpd. No. 363, ((2-(((5S,8S,10aR)-3-acetyl-8-(((2S)-5-amino-1-(((2S)-3-(4-(tert-butyl)phenyl)-1-(4-(4-(2-(2,6-dioxopiperidin-3-yl)-1-oxoisoindolin-4-yl)but-3-yn-1-yl)piperidin-1-yl)-1-oxopropan-2-yl)amino)-1,5-dioxopentan-2-yl)carbamoyl)-6-oxodecahydropyrrolo [1,2-a][1,5]diazocin-5-yl)carbamoyl)benzo[b]thiophen-5-yl)difluoromethyl)phosphonic acid] has a DC50 (STAT1) of less than 250 nM and a DC50 (STAT3) of less than 250 nM.
For `CC(C)N1CC[C@H]2CC[C@@H](C(=O)N[C@@H](CCC(N)=O)C(=O)N[C@@H](Cc3ccc(C(C)(C)C)cc3)C(=O)N3CCC(CCC#Cc4cccc5c4CN(C4CCC(=O)NC4=O)C5=O)CC3)N2C(=O)[C@@H](NC(=O)c2cc3cc(C(F)(F)P(=O)(O)O)ccc3s2)C1` (stereo partly drawn) [Cpd. No. 364, ((2-(((5S,8S,10aR)-8-(((2S)-5-amino-1-(((2S)-3-(4-(tert-butyl)phenyl)-1-(4-(4-(2-(2,6-dioxopiperidin-3-yl)-1-oxoisoindolin-4-yl)but-3-yn-1-yl)piperidin-1-yl)-1-oxopropan-2-yl)amino)-1,5-dioxopentan-2-yl)carbamoyl)-3-isopropyl-6-oxodecahydropyrrolo[1,2-a][1,5]diazocin-5-yl)carbamoyl)benzo[b]thiophen-5-yl)difluoromethyl) phosphonic acid], the DC50 (STAT1) was less than 250 nM and the DC50 (STAT3) was less than 250 nM.
With `CCN1CC[C@H]2CC[C@@H](C(=O)N[C@@H](CCC(N)=O)C(=O)N[C@@H](Cc3ccc(C(=O)N4CCC(F)(F)CC4)cc3)C(=O)N3CCC(CCC#Cc4cccc5c4CN(C4CCC(=O)NC4=O)C5=O)CC3)N2C(=O)[C@@H](NC(=O)c2cc3cc(C(F)(F)P(=O)(O)O)ccc3s2)C1` (stereo partly drawn) [Cpd. No. 365, ((2-(((5S,8S,10aR)-8-(((2S)-5-amino-1-(((2S)-3-(4-(4,4-difluoropiperidine-1-carbonyl)phenyl)-1-(4-(4-(2-(2,6-dioxopiperidin-3-yl)-1-oxoisoindolin-4-yl)but-3-yn-1-yl)piperidin-1-yl)-1-oxopropan-2-yl)amino)-1,5-dioxopentan-2-yl)carbamoyl)-3-ethyl-6-oxodecahydropyrrolo[1,2-a][1,5]diazocin-5-yl)carbamoyl)benzo[b]thiophen-5-yl)difluoromethyl) phosphonic acid] the DC50 (STAT1) was less than 250 nM and the DC50 (STAT3) was less than 250 nM.
`CCN1CC[C@H]2CC[C@@H](C(=O)N[C@@H](CCC(N)=O)C(=O)N[C@@H](Cc3ccc(C(=O)N4CCOCC4)cc3)C(=O)N3CCC(CCC#Cc4cccc5c4CN(C4CCC(=O)NC4=O)C5=O)CC3)N2C(=O)[C@@H](NC(=O)c2cc3cc(C(F)(F)P(=O)(O)O)ccc3s2)C1` (stereo partly drawn) [Cpd. No. 366, ((2-(((5S,8S,10aR)-8-(((2S)-5-amino-1-(((2S)-1-(4-(4-(2-(2,6-dioxopiperidin-3-yl)-1-oxoisoindolin-4-yl)but-3-yn-1-yl)piperidin-1-yl)-3-(4-(morpholine-4-carbonyl)phenyl)-1-oxopropan-2-yl)amino)-1,5-dioxopentan-2-yl)carbamoyl)-3-ethyl-6-oxodecahydropyrrolo[1,2-a][1,5]diazocin-5-yl)carbamoyl)benzo[b]thiophen-5-yl)difluoromethyl) phosphonic acid] was tested, and the DC50 (STAT1) was less than 250 nM and the DC50 (STAT3) was less than 250 nM.
With `CCN1CC[C@H]2CC[C@@H](C(=O)N[C@@H](CCC(N)=O)C(=O)N[C@@H](Cc3ccc(C(=O)NC4CCCCC4)cc3)C(=O)N3CCC(CCC#Cc4cccc5c4CN(C4CCC(=O)NC4=O)C5=O)CC3)N2C(=O)[C@@H](NC(=O)c2cc3cc(C(F)(F)P(=O)(O)O)ccc3s2)C1` (stereo partly drawn) [Cpd. No. 367, ((2-(((5S,8S,10aR)-8-(((2S)-5-amino-1-(((2S)-3-(4-(cyclohexylcarbamoyl)phenyl)-1-(4-(4-(2-(2,6-dioxopiperidin-3-yl)-1-oxoisoindolin-4-yl)but-3-yn-1-yl)piperidin-1-yl)-1-oxopropan-2-yl)amino)-1,5-dioxopentan-2-yl)carbamoyl)-3-ethyl-6-oxodecahydropyrrolo[1,2-a][1,5]diazocin-5-yl)carbamoyl)benzo[b]thiophen-5-yl)difluoromethyl) phosphonic acid] the DC50 (STAT1) was less than 1000 nM and the DC50 (STAT3) was less than 1000 nM.
`CCN1CC[C@H]2CC[C@@H](C(=O)N[C@@H](CCNC(N)=O)C(=O)N[C@@H](Cc3ccc(C(C)(C)C)cc3)C(=O)N3CCC(CCC#Cc4cccc5c4CN(C4CCC(=O)NC4=O)C5=O)CC3)N2C(=O)[C@@H](NC(=O)c2cc3cc(C(F)(F)P(=O)(O)O)ccc3s2)C1` (stereo partly drawn) [compound 355, ((2-(((5S,8S,10aR)-8-(((2S)-1-(((2S)-3-(4-(tert-butyl)phenyl)-1-(4-(4-(2-(2,6-dioxopiperidin-3-yl)-1-oxoisoindolin-4-yl)but-3-yn-1-yl)piperidin-1-yl)-1-oxopropan-2-yl)amino)-1-oxo-4-ureidobutan-2-yl)carbamoyl)-3-ethyl-6-oxodecahydropyrrolo[1,2-a][1,5]diazocin-5-yl)carbamoyl)benzo[b]thiophen-5-yl)difluoromethyl)phosphonic acid] showed a DC50 (STAT1) greater than 1000 nM and a DC50 (STAT3) greater than 1000 nM.
`CCN1CC[C@H]2CC[C@@H](C(=O)N[C@@H](CNC(N)=O)C(=O)N[C@@H](Cc3ccc(C(C)(C)C)cc3)C(=O)N3CCC(CCC#Cc4cccc5c4CN(C4CCC(=O)NC4=O)C5=O)CC3)N2C(=O)[C@@H](NC(=O)c2cc3cc(C(F)(F)P(=O)(O)O)ccc3s2)C1` (stereo partly drawn) [compound 356, ((2-(((5S,8S,10aR)-8-(((2S)-1-(((2S)-3-(4-(tert-butyl)phenyl)-1-(4-(4-(2-(2,6-dioxopiperidin-3-yl)-1-oxoisoindolin-4-yl)but-3-yn-1-yl)piperidin-1-yl)-1-oxopropan-2-yl)amino)-1-oxo-3-ureidopropan-2-yl)carbamoyl)-3-ethyl-6-oxodecahydropyrrolo[1,2-a][1,5]diazocin-5-yl)carbamoyl)benzo[b]thiophen-5-yl)difluoromethyl)phosphonic acid] gave a DC50 (STAT1) greater than 1000 nM and a DC50 (STAT3) of less than 250 nM.
